Test results taken from PubChem BioAssay AID248 (DTP/NCI, 2004).
Values joined by “and” are separate entries in the source; they are usually repeats but may differ in a detail not shown here. Identical values can stand only once. Toxic doses and inconclusive results are not listed. Cut-off read from the data, not from the text of the source: active = T/C of 150% or more; inactive = T/C below 125%.

System: L1210 leukemia ip in BDF1 mice, survival T/C
Assay: NCI In Vivo Anticancer Drug Screen. Data for tumor model L1210 Leukemia (intraperitoneal) in B6D2F1 (BDF1) mice
Conditions: endpoint: mean survival time, higher = longer survival
In short: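 In this screen, tumor-bearing mice given compound are compared to those given vehicle, and their survival values are reported as a treated-to-control quotient.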

[1] = dose: 200.0 mg/kg/injection, schedule: Q04DX002 (ip), vehicle: saline with Tween-80
[2] = dose: 100.0 mg/kg/injection, schedule: Q01DX001 (ip), vehicle: carboxymethylcellulose (CMC)
[3] = dose: 200.0 mg/kg/injection, schedule: Q01DX001 (ip), vehicle: carboxymethylcellulose (CMC)
[4] = dose: 400.0 mg/kg/injection, schedule: Q01DX001 (ip), vehicle: carboxymethylcellulose (CMC)
[5] = dose: 100.0 mg/kg/injection, schedule: Q04DX002 (ip), vehicle: Klucel (hydroxypropylcellulose) (HPC)
[6] = dose: 200.0 mg/kg/injection, schedule: Q04DX002 (ip), vehicle: Klucel (hydroxypropylcellulose) (HPC)
[7] = dose: 12.5 mg/kg/injection, schedule: Q04DX003 (ip), vehicle: saline
[8] = dose: 25.0 mg/kg/injection, schedule: Q04DX003 (ip), vehicle: saline
[9] = dose: 100.0 mg/kg/injection, schedule: Q01DX009 (ip), vehicle: Klucel (hydroxypropylcellulose) (HPC)
[10] = dose: 200.0 mg/kg/injection, schedule: Q01DX009 (ip), vehicle: Klucel (hydroxypropylcellulose) (HPC)
[11] = dose: 400.0 mg/kg/injection, schedule: Q01DX009 (ip), vehicle: Klucel (hydroxypropylcellulose) (HPC)
[12] = dose: 100.0 mg/kg/injection, schedule: Q01DX001 (ip), vehicle: acetone
[13] = dose: 200.0 mg/kg/injection, schedule: Q01DX001 (ip), vehicle: acetone
[14] = dose: 400.0 mg/kg/injection, schedule: Q01DX001 (ip), vehicle: acetone
[15] = dose: 400.0 mg/kg/injection, schedule: Q04DX002 (ip), vehicle: Klucel (hydroxypropylcellulose) (HPC)

Measured: T/C

CCCCOC(=O)c1ccc(OC(=O)Nc2ccc(Cl)cc2)cc1
inactive: dose: 25.0 mg/kg/injection, schedule: Q01DX009 (ip), vehicle: saline with Tween-80 101 % of control and 110 % of control | dose: 50.0 mg/kg/injection, schedule: Q01DX009 (ip), vehicle: saline with Tween-80 101 % of control and 110 % of control | dose: 100.0 mg/kg/injection, schedule: Q01DX001 (ip), vehicle: saline with Tween-80 104 % of control | dose: 100.0 mg/kg/injection, schedule: Q04DX002 (ip), vehicle: saline with Tween-80 93 % of control and 115 % of control | dose: 100.0 mg/kg/injection, schedule: Q04DX003 (ip), vehicle: saline with Tween-80 94 % of control | dose: 200.0 mg/kg/injection, schedule: Q01DX001 (ip), vehicle: saline with Tween-80 95 % of control | [1] 95 % of control and 110 % of control | dose: 200.0 mg/kg/injection, schedule: Q04DX003 (ip), vehicle: saline with Tween-80 94 % of control | dose: 400.0 mg/kg/injection, schedule: Q01DX001 (ip), vehicle: saline with Tween-80 98 % of control | dose: 400.0 mg/kg/injection, schedule: Q04DX002 (ip), vehicle: saline with Tween-80 100 % of control and 106 % of control | dose: 400.0 mg/kg/injection, schedule: Q04DX003 (ip), vehicle: saline with Tween-80 97 % of control

O=[N+]([O-])c1ccc(O)c(N=Cc2ccccc2O)c1
inactive: [2] 102 % of control | [3] 96 % of control | [4] 96 % of control

Cc1ccc2c(c1)[n+]([O-])c(N)c(C#N)[n+]2[O-]
inactive: [5] 102 % of control | [6] 98 % of control

CN(C)P1(=O)OCC(C(C)(C)C)CO1 (configuration not stated)
inactive: dose: 100.0 mg/kg/injection, schedule: Q04DX003 (ip), vehicle: saline 112 % of control

CCCCCCCCCCOC(=O)C[n+]1ccc(C(N)=O)cc1
inactive: [7] 98 % of control | [8] 91 % of control | dose: 50.0 mg/kg/injection, schedule: Q04DX003 (ip), vehicle: saline 91 % of control

COc1ccc(Cl)cc1NC(=O)COc1ccc(Cl)cc1
inactive: [9] 96 % of control | dose: 100.0 mg/kg/injection, schedule: Q04DX003 (ip), vehicle: Klucel (hydroxypropylcellulose) (HPC) 102 % of control | [10] 107 % of control | dose: 200.0 mg/kg/injection, schedule: Q04DX003 (ip), vehicle: Klucel (hydroxypropylcellulose) (HPC) 122 % of control | [11] 96 % of control | dose: 400.0 mg/kg/injection, schedule: Q04DX003 (ip), vehicle: Klucel (hydroxypropylcellulose) (HPC) 90 % of control

COc1c(Br)cc(N=Cc2ccc(N(CCCl)CCCl)cc2C)cc1Br
inactive: [2] 98 % of control | [3] 107 % of control | [4] 110 % of control

O=C(NCCCCCCCCCCCCNC(=O)Nc1ccc(C2=NCC(O)CN2)cc1)Nc1ccc(C2=NCC(O)CN2)cc1 (configuration not stated)
inactive: dose: 62.5 mg/kg/injection, schedule: Q01DX Z (ip), vehicle: carboxymethylcellulose (CMC) 113 % of control | dose: 250.0 mg/kg/injection, schedule: Q01DX Z (ip), vehicle: carboxymethylcellulose (CMC) 122 % of control

Cc1cc(C)c(CC(=N)c2ccccc2)c(C)c1
inactive: [12] 96 % of control | [13] 94 % of control | [14] 88 % of control

O=C(Nc1ccc(Cl)cc1)Oc1ccc(Nc2ccccc2)cc1
inactive: [5] 114 % of control | [6] 111 % of control | [15] 111 % of control

Cc1ccc(C(C)C)c(O)c1C(=O)O
inactive: dose: 100.0 mg/kg/injection, schedule: Q01DX001 (ip), vehicle: Klucel (hydroxypropylcellulose) (HPC) 96 % of control | dose: 200.0 mg/kg/injection, schedule: Q01DX001 (ip), vehicle: Klucel (hydroxypropylcellulose) (HPC) 104 % of control

CC1CCCCN1Cc1ccccc1COC(=O)c1ccc(Br)cc1 (configuration not stated)
inactive: [5] 101 % of control | [6] 92 % of control | [15] 96 % of control

CC(=O)OCC1OC(O)C(NC(=O)C(F)(F)F)C(OC(C)=O)C1OC(C)=O (configuration not stated)
inactive: [7] 109 % of control | [8] 96 % of control

CN(C(=O)c1cccc([N+](=O)[O-])c1)C1CCCCC1
inactive: [9] 93 % of control | [10] 100 % of control | [11] 96 % of control

O=C(NCCCl)NC1CCCCCC1
inactive: [9] 101 % of control | [10] 108 % of control | [11] 100 % of control

CC(C)CC1(C(C)C)C(=O)NC(=O)NC1=O
inactive: dose: 75.0 mg/kg/injection, schedule: Q01DX001 (ip), vehicle: saline 89 % of control | dose: 150.0 mg/kg/injection, schedule: Q01DX001 (ip), vehicle: saline 98 % of control

NC1C(=O)Nc2cc(O)c(C(=O)O)cc21 (configuration not stated)
inactive: dose: 100.0 mg/kg/injection, schedule: Q01DX001 (ip), vehicle: gum acacia 100 % of control | dose: 200.0 mg/kg/injection, schedule: Q01DX001 (ip), vehicle: gum acacia 100 % of control | dose: 400.0 mg/kg/injection, schedule: Q01DX001 (ip), vehicle: gum acacia 97 % of control

O=C(N/N=C/c1ccccc1O)c1cc2ccccc2cc1O
inactive: dose: 100.0 mg/kg/injection, schedule: Q01DX009 (ip), vehicle: saline with Tween-80 91 % of control | dose: 200.0 mg/kg/injection, schedule: Q01DX009 (ip), vehicle: saline with Tween-80 86 % of control | dose: 400.0 mg/kg/injection, schedule: Q01DX009 (ip), vehicle: saline with Tween-80 90 % of control

O=[N+]([O-])c1cc(Cl)ccc1S(=O)(=O)CC(Cl)c1ccccc1 (configuration not stated)
inactive: [12] 104 % of control | dose: 100.0 mg/kg/injection, schedule: Q01DX009 (ip), vehicle: acetone 98 % of control | dose: 100.0 mg/kg/injection, schedule: Q04DX003 (ip), vehicle: acetone 108 % of control | [13] 104 % of control | dose: 200.0 mg/kg/injection, schedule: Q01DX009 (ip), vehicle: acetone 87 % of control and 88 % of control | dose: 200.0 mg/kg/injection, schedule: Q04DX003 (ip), vehicle: acetone 100 % of control | [14] 101 % of control | dose: 400.0 mg/kg/injection, schedule: Q01DX009 (ip), vehicle: acetone 106 % of control and 92 % of control | dose: 400.0 mg/kg/injection, schedule: Q04DX003 (ip), vehicle: acetone 100 % of control

CO/C=C(\C)C(=O)O
inactive: dose: 100.0 mg/kg/injection, schedule: Q01DX001 (ip), vehicle: other 102 % of control | dose: 200.0 mg/kg/injection, schedule: Q01DX001 (ip), vehicle: other 98 % of control | dose: 400.0 mg/kg/injection, schedule: Q01DX001 (ip), vehicle: other 93 % of control

CC(=O)c1ccc(CC(C)C)cc1
inactive: dose: 150.0 mg/kg/injection, schedule: Q01DX009 (ip), vehicle: Klucel (hydroxypropylcellulose) (HPC) 90 % of control | dose: 300.0 mg/kg/injection, schedule: Q01DX009 (ip), vehicle: Klucel (hydroxypropylcellulose) (HPC) 94 % of control

NNC(=O)CNc1ccc(F)c(F)c1
inactive: [5] 104 % of control | [6] 108 % of control

CC(=O)OCC1OC(N2CCc3ccccc32)C(OC(C)=O)C(OC(C)=O)C1OC(C)=O (configuration not stated)
inactive: dose: 100.0 mg/kg/injection, schedule: Q01DX001 (ip), vehicle: saline 103 % of control | dose: 200.0 mg/kg/injection, schedule: Q01DX001 (ip), vehicle: saline 102 % of control | dose: 400.0 mg/kg/injection, schedule: Q01DX001 (ip), vehicle: saline 96 % of control

CS(=O)(=O)SCc1ccc([N+](=O)[O-])cc1
inactive: dose: 15.0 mg/kg/injection, schedule: Q01DX001 (ip), vehicle: carboxymethylcellulose (CMC) 114 % of control | dose: 30.0 mg/kg/injection, schedule: Q01DX001 (ip), vehicle: carboxymethylcellulose (CMC) 101 % of control | dose: 60.0 mg/kg/injection, schedule: Q01DX001 (ip), vehicle: carboxymethylcellulose (CMC) 97 % of control

CCCCCCCCCCCCCCCC/C(C)=C\C(=O)OC
inactive: dose: 100.0 mg/kg/injection, schedule: Q04DX003 (ip), vehicle: other 93 % of control | dose: 200.0 mg/kg/injection, schedule: Q04DX003 (ip), vehicle: other 93 % of control | dose: 400.0 mg/kg/injection, schedule: Q04DX003 (ip), vehicle: other 93 % of control

CCCCCCCCCCc1ccccc1
inactive: dose: 12.5 mg/kg/injection, schedule: Q04DX002 (ip), vehicle: saline with Tween-80 100 % of control | dose: 25.0 mg/kg/injection, schedule: Q04DX002 (ip), vehicle: saline with Tween-80 97 % of control | dose: 50.0 mg/kg/injection, schedule: Q04DX002 (ip), vehicle: saline with Tween-80 93 % of control | [1] 112 % of control
